Assay results as given in patent US20080124413A1, “NOVEL COMPOSITION CONTAINING EXTRACTS OF BUTYROSPERMUM PARKII AND THE USE OF SUCH A COMPOSITION FOR PREPARING A MEDICAMENT OR A DIETARY SUPPLEMENT FOR THE TREATMENT OR PREVENTION OF INFLAMMATION […] OR PAIN” (BSP Pharma A/S, priority 1999, published 2008).
Read-outs that look alike come from different tables or passages of the source.

How the values were obtained:
[1] = system: BALB/c mouse arthritis induced by collagen mono-clonal antibody (mAb) and lipopolysaccharide; type: in vivo; details: cyclophosphamide 10 mg/kg x3 orally, p<0.05 Wilcoxon
Experimental: BPC was dissolved in 100% corn oil. […] Dosing volume was 5 ml/kg.
In this study, male BALB/c mice weighing 20±1 grams were used. Space allocation for 5 mice was 45×23×15 cm. The animals were housed in APEC® (Allentown Gaging, Allentown, N.J. 08501, U.S.A.) cages and maintained in a hygienic environment under controlled temperature (22° C.-24° C.) and humidity (60%-80%) with 12-hours light/dark cycles for at least one week prior to being used. Free access to standard lab chow for mice and tap water was granted. All aspects of this work including housing, experimentation and disposal of animals were performed in general according to the International Guiding Principles for Biomedical Research Involving Animals (CIOMS Publication No. ISBN 92 90360194, 1985).
The study was performed according to the method of Terato et al. (Autoimmunity, 22:137-147, 1995).
Groups of 5 BALB/c mice, 6-8 weeks of age, were used for the induction of arthritis by monoclonal antibodies (mAbs) and lipopolysaccharide (LPS). […] This was followed by intravenous 25 μg of LPS 72 hours later (day 3). From day 3, test substances were administered orally once daily for 3 consecutive days. At day 5, one or two paws (particularly the hind) began to appear red and swollen, and from day 7, arthritis symptoms of the two hind paws became severely red and swollen in untreated mice. A plethysmometer (Ugo Basile Cat # 7150) with water cell (12 mm diameter) was used for the measurement of increase in both hind paw volumes at day 7, 10, 14 and 17. The percent of inhibition of increased paw volume was calculated as follows:
Inhibition (%): [1−(Tn−To)/(Cn−Co)]×100
Co (Cn): Volume of day 0 (day n) in vehicle control (both hind paws summed)
To (Tn): Volume of day 0 (day n) in test compound-treated group (both hind paws summed)
Wilcoxon rank sum test for paired differences was used for comparing swelling in the test compound treated groups with swelling in the control group.

[2] = system: rat; details: The Merck Index; cited from earlier work

O=P1(N(CCCl)CCCl)NCCCO1 (stereo not shown) [cyclophosphamide]
reduction of hind paw edema relative to the vehicle-treated control group ([1]; day 10): 79% | reduction of hind paw edema relative to the vehicle-treated control group ([1]; day 14): 91% | reduction of hind paw edema relative to the vehicle-treated control group ([1]; day 17): 90% | LD50 [2]: 94 mg/kg
